{
  "source": "patent US9604932B2",
  "about": "(priority 2013, dated 2017)",
  "key": {"[1]": {"assay": "Plasma pharmacokinetics in pig (release of R-100 from R-107), LCMS", "format": "in vivo", "conditions": "for concentration at 0.08 h: 0.08 hrs post dose; for concentration at 0.17 h: 0.17 hrs post dose; for concentration at 0.25 h: 0.25 hrs post dose; for concentration at 0.5 h: 0.5 hrs post dose; for concentration at 1 h: 1 hrs post dose; for concentration at -0.08 h: −0.08 hrs post dose", "experimental": "In the following two experiments, the pharmacokinetic of releasing R-100 from R-107, via R-105 that is the reduced form of R-100, was studied in vivo according to the protocol described herein.\n100 μl aliquots plasma obtained from R-107-treated sheep or pig were thawed and 200 μl ice-cold ethanol was added to each 100 μl sample to precipitate protein. Samples were then vortexed, placed on ice for 10 minutes, and then spun down at room temperature for 15 minutes. A first 100 μl supernatant from each spun sample was withdrawn and placed in a labeled HPLC micro vial to which 300 μl MPA (LC mobile phase A) was added, and the vial contents were then mixed and submitted for LCMS analysis (kept at 4° C.). The concentration of R-107 was measured in this sample as was the concentration of R105. A second 100 μl supernatant from each spun sample was added to a labelled HPLC micro vial to which 300 μl MPA and 2 μl of Reducing solution (ascorbic acid, 1.0 mg/ml in water) were added. These vials were vortexed; incubated at 50° C. for 1 hour with gentle shaking; and were then cooled to 4° C. and submitted for LCMS analysis. This sample was analyzed for R105, i.e., reduced form of R-100, and the amount measured thus represents the sum of R-100 and R-105 originally present in the plasma. The concentration of R-100 can be calculated from that of the R-105 in the second sample minus that of R-105 in the first sample. However, the concentrations of R-105 were seen to be low (approximately 10% or less of those of R-100) and so the results reported below as R-100 are not corrected for R-105.\nSets of standards (R-100, R-105 and R-107) were prepared by spiking individually in pig plasma. 100 μl aliquots of these spiked plasma samples, after thawing, were included in the above extraction protocol.\nAnalysis method were carried out with an Agilent HPLC stack, with column eluate directed, via a diverter valve, into the source of an AB Sciex ‘Qstar Elite’ Hybrid TOF, high-resolution mass spectrometer. LC column: Phenomenex Kinetex C18 2.6u 100A, 2.1×50 mm. LC mobile phase A: H2O with 0.02% trifluoroacetic acid (TFA), 0.1% formic acid (HOF); Phase B: acetonitrile (ACN) with 0.02% TFA, 0.1% HOF. Mobile phase flow rate=500 μl/min. Injection size: 8 μl, via Agilent 1100 u-WPS autosampler."}, "[2]": {"tested_on": "mice exposed to a lethal dose of E. coli lipopolysaccharide (LPS)", "assay": "Murine model of sepsis (lethal dose of E. coli LPS)", "format": "in vivo, Balb/c mice", "conditions": "protocol only; 0, 20, 40, or 80 mg/kg/day BID IP", "experimental": "In this study, Balb/c mice exposed to a lethal dose of E. coli lipopolysaccharide (LPS; 10 mg/kg IP) are treated with R-107 (0, 20, 40, or 80 mg/kg/day, BID IP), with the initial dose given 1 hour after LPS injection, and the mortality for the animal treated with LPS only (the control group) vs. that for the animals treated with the various doses of R-107 is compared.\nIn a satellite study, tissues and sera are collected at 16 hours, i.e., 15 hours after the first administration and 3 hours after the second administration of R-107, for analysis, and the level of creatinine, aspartate transminase (AST), alanine transaminase (ALT), bilirubin, amylase, lipase, and alkaline phosphatase (ALP), associated with kidney, pancreas, and liver functioning are measured."}, "[3]": {"tested_on": "pulmonary hypertension of the newborn (PPHN)", "assay": "Lamb model of pulmonary hypertension of the newborn", "format": "in vivo, newborn lambs", "conditions": "protocol only; 0.3, 1.0, 3.0 mg/kg/h IV", "experimental": "In this study, a prospective, placebo-controlled, dose-escalation, randomized study is carried out in anesthetized, mechanically-ventilated, and muscle-relaxed newborn lambs wherein pulmonary hypertension of the newborn (PPHN) has been induced by in utero ligation of the ductus arteriosus. This clinically-relevant gold-standard model is characterized by severe PAH that is poorly responsive to inhaled nitric oxide (iNO), thus reflecting the 30-50% of clinical PPHN non-responders to clinical iNO therapy. R-107 (0, 0.3, 1.0, and 3.0 mg/kg/h IV; n=6 per group) is compared to iNO (40 ppm; n=6) over a 6 hour period of observation. Hemodynamic parameters are monitored for response to treatment and post-treatment rebound pulmonary arterial hypertension. The activity of R-107 is related to its plasma concentration, in order to construct a pharmacodynamic profile."}, "[4]": {"tested_on": "limb ischemia reperfusion injury (LIRI)", "assay": "Minipig model of limb ischemia-reperfusion injury", "format": "in vivo, minipigs", "conditions": "protocol only; 10, 30, 80 mg/kg/day TID", "experimental": "In this study, the efficacy of R-107 in a limb ischemia reperfusion injury (LIRI) is tested. In a large animal model of acute LIRI (n=6 minipigs per group) induced by an endovascular balloon occlusion of the femoral artery for 6 hours, parenteral R-107 (0, 10, 30, 80 mg/kg/day TID) is initiated 10 minutes before reperfusion via direct arterial infusion, followed by an IV infusion thereafter. At 7, 14, and 21 days after reperfusion, limb perfusion (by Doppler flow) is correlated with nerve conduction velocity (NCV, per electromyography, EMG), and muscle strength (by foot pressure on a walking surface) with simultaneous plasma concentrations of R-107."}, "[5]": {"conditions": "IV R-107 diluted in 4 parts of PEG400, 18 mg/kg over 6 minutes, 24 hrs post dose"}, "[6]": {"conditions": "capsule per os of neat R-107 88 mg/kg, 24 hrs post dose"}, "[7]": {"conditions": "plasma, IV R-107 diluted in 4 parts of PEG400, 18 mg/kg over 6 minutes"}, "[8]": {"conditions": "plasma, IV neat R-107 88 mg/kg over 6 minutes"}, "[9]": {"conditions": "plasma, oral, capsule per os of neat R-107 88 mg/kg"}},
  "data": [
    {"compound": "CC(=O)ON1C(C)(C)CC(CO[N+](=O)[O-])C1(C)C", "note": "(stereo not drawn) [R-107, 2,2,5,5-tetramethyl-3-(nitrooxymethyl)pyrrolidin-1-yl acetate]", "values": [
      {"measurement": "R-107 in plasma", "setting": "[1]; IV R-107 diluted in 4 parts of PEG400, 18 mg/kg over 6 minutes, 2 hrs post dose", "result": "not detected"},
      {"measurement": "R-107 in plasma", "setting": "[1]; IV R-107 diluted in 4 parts of PEG400, 18 mg/kg over 6 minutes, 4 hrs post dose", "result": "not detected"},
      {"measurement": "R-107 in plasma", "setting": "[1]; IV R-107 diluted in 4 parts of PEG400, 18 mg/kg over 6 minutes, 8 hrs post dose", "result": "not detected"},
      {"measurement": "R-100 in plasma", "setting": "[1]; [5]", "result": "not detected"},
      {"measurement": "R-107 in plasma", "setting": "[1]; [5]", "result": "not detected"},
      {"measurement": "R-107 in plasma", "setting": "[1]; IV neat R-107 88 mg/kg over 6 minutes, 6 hrs post dose", "result": "not detected"},
      {"measurement": "R-107 in plasma", "setting": "[1]; IV neat R-107 88 mg/kg over 6 minutes, 24 hrs post dose", "result": "not detected"},
      {"measurement": "R-107 in plasma", "setting": "[1]; capsule per os of neat R-107 88 mg/kg, 8 hrs post dose", "result": "not detected"},
      {"measurement": "R-100 in plasma", "setting": "[1]; [6]", "result": "not detected"},
      {"measurement": "R-107 in plasma", "setting": "[1]; [6]", "result": "not detected"},
      {"measurement": "concentration at 0.08 h", "setting": "[1]; [7]", "result": 2380, "unit": "ng/mL"},
      {"measurement": "concentration at 0.17 h", "setting": "[1]; [7]", "result": 640, "unit": "ng/mL"},
      {"measurement": "concentration at 0.25 h", "setting": "[1]; [7]", "result": 430, "unit": "ng/mL"},
      {"measurement": "concentration at 0.5 h", "setting": "[1]; [7]", "result": 250, "unit": "ng/mL"},
      {"measurement": "concentration at 1 h", "setting": "[1]; [7]", "result": 220, "unit": "ng/mL"},
      {"measurement": "concentration at -0.08 h", "setting": "[1]; [7]", "result": 0, "unit": "ng/mL"},
      {"measurement": "concentration at 0.08 h", "setting": "[1]; [8]", "result": 5240, "unit": "ng/mL"},
      {"measurement": "concentration at 0.17 h", "setting": "[1]; [8]", "result": 5870, "unit": "ng/mL"},
      {"measurement": "concentration at 0.25 h", "setting": "[1]; [8]", "result": 3430, "unit": "ng/mL"},
      {"measurement": "concentration at 0.5 h", "setting": "[1]; [8]", "result": 1320, "unit": "ng/mL"},
      {"measurement": "concentration at 1 h", "setting": "[1]; [8]", "result": 360, "unit": "ng/mL"},
      {"measurement": "concentration at 2 h", "setting": "[1]; plasma, IV neat R-107 88 mg/kg over 6 minutes, 2 hrs post dose", "result": 260, "unit": "ng/mL"},
      {"measurement": "concentration at -0.08 h", "setting": "[1]; [8]", "result": 0, "unit": "ng/mL"},
      {"measurement": "concentration at 0.08 h", "setting": "[1]; [9]", "result": 1.32, "unit": "ng/mL"},
      {"measurement": "concentration at 0.17 h", "setting": "[1]; [9]", "result": 0.715, "unit": "ng/mL"},
      {"measurement": "concentration at 0.5 h", "setting": "[1]; [9]", "result": 0.345, "unit": "ng/mL"},
      {"measurement": "concentration at 1 h", "setting": "[1]; [9]", "result": 0.11, "unit": "ng/mL"},
      {"measurement": "concentration at 2 h", "setting": "[1]; plasma, oral, capsule per os of neat R-107 88 mg/kg, 2 hrs post dose", "result": 0.222, "unit": "ng/mL"},
      {"measurement": "concentration at 3 h", "setting": "[1]; plasma, oral, capsule per os of neat R-107 88 mg/kg, 3 hrs post dose", "result": 0.11, "unit": "ng/mL"},
      {"measurement": "concentration at 4 h", "setting": "[1]; plasma, oral, capsule per os of neat R-107 88 mg/kg, 4 hrs post dose", "result": 0.122, "unit": "ng/mL"},
      {"measurement": "Efficacy in murine model of sepsis", "setting": "[2]", "result": "Effective"},
      {"measurement": "Efficacy in lamb model of pulmonary hypertension of the newborn", "setting": "[3]", "result": "Effective"},
      {"measurement": "Efficacy in minipig model of limb ischemia-reperfusion injury", "setting": "[4]", "result": "Effective"}
    ]}
  ]
}
